Test results published in US20080045514A1 (Cytovia, Inc., priority 2006, published 2008).

Tests used:
Type in all cases: cell-based
[1] = system: human hepatocellular carcinoma cell line SNU398; experiment: Caspase cascade activation (EC50), SNU398; details: Homo sapiens, SNU-398; SNU398 cells; caspase cascade activation; read-out: caspase potency (EC50) SNU398
In short: (§1)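 Cells in ATCC medium plus 10% FCS, seeded at 0.65×10^6 cells/mL, incubated with compound at 0.016 to 10 μM final, 48 h, 37 °C. Lysis-substrate buffer (14 μM DEVD-R110, 20 mM DTT, pH 7.2, lysolecithin) added; fluorescence read after 3 h at room temperature.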

[2] = system: multi-drug resistant (MDR) human sarcoma cell line MES-SA/ADR; experiment: Inhibition of cell proliferation (GI50), MES-SA/ADR; details: MES-SA/ADR multi-drug resistant cells
Protocol: (§2) Human breast cancer cell lines T-47D, human hepatocellular carcinoma cell line SNU398, human colon carcinoma cell line HCT116, human lung cancer cell line H1299, human leukemia cell line K562, human lymphoma cell line Raji, human B cell lymphoblastoid cell line Ramos, and human Burkitt's lymphoma cell line Namalwa were grown and harvested as in Example 100. An aliquot of […] of cells (4.4×10^4 cells/mL) was added to a well of a 96-well microtiter plate containing 5 μL of a 10% DMSO in RPMI-1640 media solution containing 10 nM to 100 μM of 3-(2-chlorophenyl)-6-(3,4-methylenedioxyphenyl)-7H-[1,2,4]triazolo[3,4-b][1,3,4]thiadiazine (1 nM to 10 μM final). An aliquot of 45 μL of cells was added to a well of a 96-well microtiter plate containing 5 μL of a 10% DMSO in RPMI-1640 media solution without compound as the control sample for maximal cell proliferation (LMax). The samples were mixed by agitation and then incubated at 37° C. for 48 h in a 5% CO2-95% humidity incubator. After incubation, the samples were removed from the incubator and 25 μL of CellTiter-Glo™ reagent (Promega) was added. The samples were mixed by agitation and incubated at room temperature for 10-15 min. Plates were then read using a luminescent plate reader (Model SPECTRAfluor Plus, Tecan) to give Ltest values.
(§3) The samples were mixed by agitation and then incubated at 37° C. for 0.5 h in a 5% CO2-95% humidity incubator. After incubation, the samples were removed from the incubator and 25 μL of CellTiter-Glo™ reagent (Promega) was added. The samples were mixed by agitation and incubated at […] 10-15 min at room temperature in a 5% CO2-95% humidity incubator. Fluorescence was read as above, (LStart) defining luminescence for initial cell number used as baseline in GI50 determinations.
(§4) Calculation: GI50 (dose for 50% inhibition of cell proliferation) is the concentration where [(Ltest−LStart)/(LMax−LStart)]=0.5.
(§5) Several compounds were tested in human sarcoma cell line MES-SA and multi-drug resistant (MDR) human sarcoma cell line MES-SA/ADR, murine leukemia cell line P388 and multi-drug resistant (MDR) murine leukemia cell line P388/ADR, and the data are summarized in Table III.

[3] = system: human leukemia cell line K562; experiment: Inhibition of cell proliferation (GI50), K562; details: Homo sapiens; K562 cells, 48 h, CellTiter-Glo
In short: (§6)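 48 h continuous treatment, 37 °C; final dose range 1 nM–10 μM; ATP-based luminescent viability (CellTiter-Glo); GI50 relative to 0.5 h start signal.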

[4] = system: multi-drug resistant (MDR) murine leukemia cell line P388/ADR; experiment: Inhibition of cell proliferation (GI50), P388/ADR; details: Mus musculus; P388/ADR multi-drug resistant cells
Protocol: as §2, §3, §4, §5

[5] = system: murine leukemia cell line P388; experiment: Inhibition of cell proliferation (GI50), P388; details: Mus musculus; P388 cells
Protocol: as §2, §3, §4, §5

[6] = system: human colon carcinoma cell line HCT116; experiment: Caspase cascade activation (EC50), HCT116; details: Homo sapiens, HCT-116; HCT116 cells; caspase cascade activation; read-out: caspase potency (EC50) HCT116
In short: as §1

[7] = system: human lymphoma cell line Raji; experiment: Inhibition of cell proliferation (GI50), Raji; details: Homo sapiens; Raji cells, 48 h, CellTiter-Glo
In short: as §6

[8] = system: human lymphoma cell line Raji; experiment: Caspase cascade activation (EC50), Raji; details: Homo sapiens, RAJI cells, read-out: caspase potency (EC50) RAJI
In short: as §1

[9] = system: human sarcoma cell line MES-SA; experiment: Inhibition of cell proliferation (GI50), MES-SA; details: MES-SA cells
Protocol: as §2, §3, §4, §5

[10] = system: human B cell lymphoblastoid cell line Ramos; experiment: Inhibition of cell proliferation (GI50), Ramos; details: Homo sapiens; Ramos cells, 48 h, CellTiter-Glo
In short: as §6

[11] = system: human B cell lymphoblastoid cell line Ramos; experiment: Caspase cascade activation (EC50), Ramos; details: Homo sapiens, RAMOS cells, read-out: caspase potency (EC50) RAMOS
In short: as §1

[12] = system: human Burkitt's lymphoma cell line Namalwa; experiment: Caspase cascade activation (EC50), Namalwa; details: Homo sapiens, Burkitts lymphoma cell; Namalwa cells; caspase cascade activation; read-out: caspase potency (EC50) Namalwa
In short: as §1

[13] = system: human Burkitt's lymphoma cell line Namalwa; experiment: Inhibition of cell proliferation (GI50), Namalwa; details: Homo sapiens, Burkitts lymphoma cell; Namalwa cells, 48 h, CellTiter-Glo
In short: as §6

[14] = system: human breast cancer cell line T-47D; experiment: Caspase cascade activation (EC50), T-47D; details: Homo sapiens; T47D cells; caspase cascade activation; read-out: caspase potency (EC50) T47D
In short: as §1

[15] = system: human colon carcinoma cell line HCT116; experiment: Inhibition of cell proliferation (GI50), HCT116; details: Homo sapiens; HCT 116 cells, 48 h, CellTiter-Glo
In short: as §6

[16] = system: human cancer cell line H1299; experiment: Caspase cascade activation (EC50), H1299; details: NCI-H1299, H1299 cells, read-out: caspase potency (EC50) H1299
In short: as §1

[17] = system: human hepatocellular carcinoma cell line SNU398; experiment: Inhibition of cell proliferation (GI50), SNU398; details: Homo sapiens; SNU 398 cells, 48 h, CellTiter-Glo
In short: as §6

[18] = system: human breast cancer cell line T-47D; experiment: Inhibition of cell proliferation (GI50), T47D; details: Homo sapiens; T47D cells, 48 h, CellTiter-Glo
In short: as §6

[19] = system: human lung cancer cell line H1299; experiment: Inhibition of cell proliferation (GI50), H1299; details: NCI-H1299, H1299 cells, 48 h, CellTiter-Glo
Protocol: as §2, §3, §4

Row | Structure (SMILES) | EC50 [1] | GI50 [2] | GI50 [3] | GI50 [4] | GI50 [5] | EC50 [6] | GI50 [7] | EC50 [8] | GI50 [9] | GI50 [10] | EC50 [11] | EC50 [12] | GI50 [13] | EC50 [14] | GI50 [15] | EC50 [16] | GI50 [17] | GI50 [18] | GI50 [19]
1 | COc1cc(OC)cc(-c2nnc3n2N=C(c2ccc4c(c2)OCO4)CS3)c1 [Example 2, 3-(3,5-Dimethoxyphenyl)-6-(3,4-methylenedioxyphenyl)-7H-[1,2,4]triazolo[3,4-b][1,3,4]thiadiazine] | 141 nM | 154 nM | 27 nM | 29 nM | 20 nM | 139 nM | 53 nM | 112 nM | 59 nM | 11 nM | 89 nM | 117 nM | 20 nM | 508 nM | 190 nM | – | – | – | –
2 | COc1cc(-c2nnc3n2N=C(c2ccc4c(c2)OCO4)CS3)cc(Cl)c1OC [Example 4, 3-(3-Chloro-4,5-dimethoxyphenyl)-6-(3,4-methylenedioxyphenyl)-7H-[1,2,4]triazolo[3,4-b][1,3,4]thiadiazine] | 47 nM | 28 nM | 24 nM | 16 nM | 12 nM | 61 nM | 26 nM | 32 nM | 30 nM | 12 nM | 31 nM | 36 nM | 31 nM | 168 nM | 150 nM | – | – | – | –
3 | COc1ccc(C2=Nn3c(nnc3-c3cccc(OC)c3)SC2)cc1 [Example X, 3-(3-methoxyphenyl)-6-(4-methoxyphenyl)-7H-[1,2,4]triazolo[3,4-b][1,3,4]thiadiazine] | 67 nM | 196 nM | 32 nM | 77 nM | 57 nM | 119 nM | 62 nM | 83 nM | 418 nM | 14 nM | 67 nM | 66 nM | 119 nM | 523 nM | 157 nM | 680 nM | 55 nM | 400 nM | –
4 | COc1ccccc1-c1nnc2n1N=C(c1ccc3c(c1)OCO3)CS2 [V, 3-(2-Methoxyphenyl)-6-(3,4-methylenedioxyphenyl)-7H-[1,2,4]triazolo[3,4-b][1,3,4]thiadiazine] | 68 nM | 123 nM | – | 43 nM | 31 nM | 111 nM | – | 81 nM | 83 nM | – | 75 nM | 61 nM | – | 62 nM | – | – | – | – | –

These reach a lower EC50 [1]. Values come first.

Row | EC50 [1] | GI50 [2] | GI50 [3] | GI50 [4] | GI50 [5] | EC50 [6] | GI50 [7] | EC50 [8] | GI50 [9] | GI50 [10] | EC50 [11] | EC50 [12] | GI50 [13] | EC50 [14] | GI50 [15] | EC50 [16] | GI50 [17] | GI50 [18] | GI50 [19] | Structure (SMILES)
5 | 36 nM | 63 nM | – | 25 nM | 23 nM | 154 nM | – | 49 nM | 44 nM | – | 32 nM | 36 nM | – | 517 nM | – | – | – | – | – | COc1ccc(C2=Nn3c(nnc3-c3cc(OC)c(OC)c(OC)c3)SC2)cc1 [Example A2, 3-(3,4,5-Trimethoxyphenyl)-6-(4-methoxyphenyl)-7H-[1,2,4]triazolo[3,4-b][1,3,4]thiadiazine]
6 | 28 nM | 25 nM | 18 nM | 10 nM | 7 nM | 40 nM | 41 nM | 19 nM | 17 nM | 16 nM | 13 nM | 31 nM | 13 nM | 61 nM | 25 nM | 68 nM | 12 nM | 22 nM | 166 nM | COc1cc(-c2nnc3n2N=C(c2ccc4c(c2)OCO4)CS3)cc(OC)c1OC [Example M1, 3-(3,4,5-Trimethoxyphenyl)-6-(3,4-methylenedioxyphenyl)-7H-[1,2,4]triazolo[3,4-b][1,3,4]thiadiazine]
